Earlier results, collected in article PMC8305651 (International Journal of Molecular Sciences, 2021).

Settings: cited from earlier work

In the case of `O=c1cc(-c2ccc(O)c(O)c2)oc2cc(O)cc(O)c12` [luteolin], the bioavailability is listed as “low bioavailability”.
